ChEMBL document CHEMBL1201862, “PubChem BioAssay data set” (2004)
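Exposure lasted 48 hours, with cells grown in 96-well plates and compounds tested at five concentrations. Abbreviation: GI50, concentration required for 50% inhibition of growth.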 Calls of active or inactive are those of the source. No stated cut-off is given here; in the data, active = GI50 up to about 1.1 µM and inactive = higher.

Key:
Test in all cases: NCI tumour cell line growth inhibition, 48 h
[1] = tested on: SNB-75
[2] = tested on: RPMI-8226
[3] = tested on: M14
[4] = tested on: A549
[5] = tested on: U-251
[6] = tested on: SW-620
[7] = tested on: HL-60
[8] = tested on: K562
[9] = tested on: CCRF-CEM
[10] = tested on: LOX IMVI
[11] = tested on: SF-295
[12] = tested on: M19-MEL
[13] = tested on: LXFL 529
[14] = tested on: HOP-62
[15] = tested on: DMS-273
[16] = tested on: ACHN
[17] = tested on: HT-29
[18] = tested on: SN12C
[19] = tested on: KM12
[20] = tested on: MOLT-4
[21] = tested on: SNB-19
[22] = tested on: SF-539
[23] = tested on: A498
[24] = tested on: COLO 205
[25] = tested on: UACC-257
[26] = tested on: DMS-114
[27] = tested on: OVCAR-3
[28] = tested on: SNB-78
[29] = tested on: SF-268
[30] = tested on: HOP-18
[31] = tested on: RXF 393
[32] = tested on: SK-MEL-5
[33] = tested on: NCI-H226
[34] = tested on: IGROV-1
[35] = tested on: DLD-1
[36] = tested on: UO-31
[37] = tested on: NCI-H522
[38] = tested on: NCI-H460
[39] = tested on: Malme-3M
[40] = tested on: OVCAR-4
[41] = tested on: NCI-H23
[42] = tested on: TK-10
[43] = tested on: KM-20L2
[44] = tested on: OVCAR-5
[45] = tested on: UACC-62
[46] = tested on: SK-OV-3
[47] = tested on: HCT-116
[48] = tested on: HCT-15
[49] = tested on: SK-MEL-2
[50] = tested on: SK-MEL-28
[51] = tested on: HCC 2998
[52] = tested on: CAKI-1
[53] = tested on: 786-0
[54] = tested on: OVCAR-8
[55] = tested on: XF498
[56] = tested on: HOP-92
[57] = tested on: SR
[58] = tested on: EKVX

CCOc1ccccc1NC(=O)CSc1nnc(Cc2ccccc2)o1
GI50 [1]: 56.1 µM (inactive)
GI50 [2]: 35.6 µM (inactive)
GI50 [3]: 21.9 µM (inactive)
GI50 [4]: > 100 µM (inactive)
GI50 [5]: 20.2 µM (inactive)
GI50 [6]: 16.6 µM (inactive)
GI50 [7]: 35.7 µM (inactive)
GI50 [8]: 54.8 µM (inactive)
GI50 [9]: 33.5 µM (inactive)
GI50 [10]: 15.5 µM (inactive)
GI50 [11]: 98.4 µM (inactive)
GI50 [12]: 34.5 µM (inactive)
GI50 [13]: 16.6 µM (inactive)
GI50 [14]: > 100 µM (inactive)
GI50 [15]: 22.7 µM (inactive)
GI50 [16]: 22.5 µM (inactive)
GI50 [17]: 35.3 µM (inactive)
GI50 [18]: 26 µM (inactive)
GI50 [19]: 40.3 µM (inactive)
GI50 [20]: 23 µM (inactive)
GI50 [21]: 24 µM (inactive)
GI50 [22]: 25.5 µM (inactive)
GI50 [23]: 66.7 µM (inactive)
GI50 [24]: 20.6 µM (inactive)
GI50 [25]: 29.7 µM (inactive)
GI50 [26]: 17.6 µM (inactive)
GI50 [27]: 17.1 µM (inactive)
GI50 [28]: 81.5 µM (inactive)
GI50 [29]: 23.9 µM (inactive)
GI50 [30]: 20.4 µM (inactive)
GI50 [31]: 35.7 µM (inactive)
GI50 [32]: 19.3 µM (inactive)
GI50 [33]: 25.2 µM (inactive)
GI50 [34]: 47.5 µM (inactive)
GI50 [35]: 23.4 µM (inactive)
GI50 [36]: 23.9 µM (inactive)
GI50 [37]: 18.2 µM (inactive)
GI50 [38]: 20.2 µM (inactive)
GI50 [39]: 15.6 µM (inactive)
GI50 [40]: 26.4 µM (inactive)
GI50 [41]: 17.2 µM (inactive)
GI50 [42]: 71.1 µM (inactive)
GI50 [43]: 38.1 µM (inactive)
GI50 [44]: 66.1 µM (inactive)
GI50 [45]: 25.8 µM (inactive)
GI50 [46]: 44.9 µM (inactive)
GI50 [47]: 30.6 µM (inactive)
GI50 [48]: 17.3 µM
GI50 [49]: 23.8 µM (inactive)
GI50 [50]: 71.4 µM (inactive)
GI50 [51]: 48.1 µM (inactive)
GI50 [52]: 20.5 µM (inactive)
GI50 [53]: 17.9 µM (inactive)
GI50 [54]: 27 µM (inactive)

COP1(=O)Oc2ccccc2C(=O)C(C(F)(F)F)(C(F)(F)F)O1 (configuration not stated)
GI50 [1]: > 100 µM (inactive)
GI50 [2]: 42.9 µM (inactive)
GI50 [3]: > 100 µM (inactive)
GI50 [4]: > 100 µM (inactive)
GI50 [5]: > 100 µM (inactive)
GI50 [6]: > 100 µM (inactive)
GI50 [7]: > 100 µM (inactive)
GI50 [8]: > 100 µM (inactive)
GI50 [9]: > 100 µM (inactive)
GI50 [10]: > 100 µM (inactive)
GI50 [11]: > 100 µM (inactive)
GI50 [12]: > 100 µM (inactive)
GI50 [13]: > 100 µM (inactive)
GI50 [14]: > 100 µM (inactive)
GI50 [15]: > 100 µM (inactive)
GI50 [16]: > 100 µM (inactive)
GI50 [17]: > 100 µM (inactive)
GI50 [18]: > 100 µM (inactive)
GI50 [19]: > 100 µM (inactive)
GI50 [20]: > 100 µM (inactive)
GI50 [21]: > 100 µM (inactive)
GI50 [22]: > 100 µM (inactive)
GI50 [55]: 85.9 µM (inactive)
GI50 [23]: > 100 µM (inactive)
GI50 [56]: 56.8 µM (inactive)
GI50 [24]: > 100 µM (inactive)
GI50 [25]: > 100 µM (inactive)
GI50 [26]: > 100 µM (inactive)
GI50 [29]: > 100 µM (inactive)
GI50 [31]: > 100 µM (inactive)
GI50 [32]: > 100 µM (inactive)
GI50 [34]: > 100 µM (inactive)
GI50 [35]: > 100 µM (inactive)
GI50 [57]: > 100 µM (inactive)
GI50 [36]: > 100 µM (inactive)
GI50 [37]: > 100 µM (inactive)
GI50 [38]: > 100 µM (inactive)
GI50 [40]: > 100 µM (inactive)
GI50 [41]: > 100 µM (inactive)
GI50 [58]: > 100 µM (inactive)
GI50 [42]: > 100 µM (inactive)
GI50 [43]: > 100 µM (inactive)
GI50 [44]: > 100 µM (inactive)
GI50 [45]: > 100 µM (inactive)
GI50 [46]: > 100 µM (inactive)
GI50 [47]: > 100 µM (inactive)
GI50 [48]: > 100 µM
GI50 [49]: > 100 µM (inactive)
GI50 [50]: > 100 µM (inactive)
GI50 [51]: 0.577 µM (active)
GI50 [52]: 50.6 µM (inactive)
GI50 [53]: > 100 µM (inactive)
GI50 [54]: > 100 µM (inactive)
